Consider five compounds from PubChem BioAssay AID1745844 (Carcinogenic Potency Database (CPDB), 2022).

The data set has as its system rodent lifetime carcinogenesis bioassay, tumor incidence TD50. In words: carcinogenic potency in animals, long-term in vivo studies, CPDB compilation (AID 1745844).

Where “and” joins values, the source holds several entries; their conditions need not be identical. Equal values may be shown once. Calls of active or inactive are those of the source. No rule for the calls is given here.

Turning to `CCNC(=S)NCC`, the carcinogen call by setting is: (mouse, strain B6C3F1, females, in feed, site: any site (literature study), lesion: several types, types named in the paper, dosed 103 weeks, study length 104 weeks) “negative (inactive)”; (mouse, strain B6C3F1, males, in feed, site: any site (literature study), lesion: several types, types named in the paper, dosed 103 weeks, study length 104 weeks) “negative (inactive)”. Moreover, the TD50 was 687 mg/kg/day (mouse, strain B6C3F1, females, in feed, site: liver, lesion: hepatocellular adenoma + hepatocellular carcinoma + neoplastic nodule, dosed 103 weeks, study length 104 weeks); 28.1 mg/kg/day (rat, strain F344/DuCrj, males, in feed, site: thyroid gland, lesion: follicular-cell carcinoma, dosed 52 weeks, study length 52 weeks); 21.5 mg/kg/day (rat, strain Fischer 344, females, in feed, site: any site (literature study), lesion: several types, types named in the paper, dosed 104 weeks, study length 104 weeks); 23.8 mg/kg/day (rat, strain Fischer 344, females, in feed, site: thyroid gland, lesion: follicular-cell adenoma + follicular-cell carcinoma, dosed 104 weeks, study length 104 weeks); 57.9 mg/kg/day (rat, strain Fischer 344, females, in feed, site: thyroid gland, lesion: follicular-cell carcinoma, dosed 104 weeks, study length 104 weeks); 12.9 mg/kg/day (rat, strain Fischer 344, males, in feed, site: any site (literature study), lesion: several types, types named in the paper, dosed 103 weeks, study length 104 weeks). The TD50 is, setting by setting: (rat, strain Fischer 344, males, in feed, site: thyroid gland, lesion: follicular-cell adenoma + follicular-cell carcinoma, dosed 103 weeks, study length 104 weeks) 24.3 mg/kg/day; (rat, strain Fischer 344, males, in feed, site: thyroid gland, lesion: follicular-cell carcinoma, dosed 103 weeks, study length 104 weeks) 33.6 mg/kg/day.

Consider `O=P(OCCCl)(OCCCl)OCCCl`, for which the TD50 (mouse, strain B6C3F1, females, by gavage, site: Harderian gland, lesion: adenoma + carcinoma, dosed 104 weeks, study length 104 weeks) came to 1390 mg/kg/day; the TD50 (mouse, strain B6C3F1, females, by gavage, site: any site (literature study), lesion: several types, types named in the paper, dosed 104 weeks, study length 104 weeks) was 610 mg/kg/day; the TD50 (mouse, strain B6C3F1, females, by gavage, site: liver, lesion: hepatocellular adenoma + hepatocellular carcinoma + neoplastic nodule, dosed 104 weeks, study length 104 weeks) was 2870 mg/kg/day; the TD50 (mouse, strain B6C3F1, females, by gavage, site: lung, lesion: alveolar/bronchiolar adenoma + alveolar/bronchiolar carcinoma, dosed 104 weeks, study length 104 weeks) worked out at 4380 mg/kg/day; the TD50 (mouse, strain B6C3F1, females, by gavage, site: mammary gland, lesion: adenocarcinoma, dosed 104 weeks, study length 104 weeks) worked out at 3050 mg/kg/day; the TD50 (mouse, strain B6C3F1, females, by gavage, site: uterus, lesion: endometrial stromal polyp, dosed 104 weeks, study length 104 weeks) stood at 2420 mg/kg/day. Also, the TD50 was 807 mg/kg/day (mouse, strain B6C3F1, males, by gavage, site: any site (literature study), lesion: several types, types named in the paper, dosed 104 weeks, study length 104 weeks); 3510 mg/kg/day and 6810 mg/kg/day (mouse, strain B6C3F1, males, by gavage, site: kidney, lesion: tubule adenoma + tubule carcinoma, dosed 104 weeks, study length 104 weeks); 8450 mg/kg/day (mouse, strain B6C3F1, males, by gavage, site: kidney, lesion: tubule carcinoma, dosed 104 weeks, study length 104 weeks); 569 mg/kg/day (mouse, strain B6C3F1, males, by gavage, site: liver, lesion: hepatocellular adenoma + hepatocellular carcinoma + neoplastic nodule, dosed 104 weeks, study length 104 weeks); 61700 mg/kg/day (mouse, strain B6C3F1, males, by gavage, site: lung, lesion: alveolar/bronchiolar adenoma + alveolar/bronchiolar carcinoma, dosed 104 weeks, study length 104 weeks); 4790 mg/kg/day (mouse, strain Slc:ddY, females, in feed, site: all sites, lesion: leukemia, dosed 78 weeks, study length 78 weeks). For the same compound, the TD50 runs as follows: (mouse, strain Slc:ddY, females, in feed, site: any site (literature study), lesion: several types, types named in the paper, dosed 78 weeks, study length 78 weeks) 880 mg/kg/day; (mouse, strain Slc:ddY, females, in feed, site: forestomach, lesion: several types, types named in the paper, dosed 78 weeks, study length 78 weeks) 5500 mg/kg/day; (mouse, strain Slc:ddY, females, in feed, site: forestomach, lesion: squamous-cell carcinoma, dosed 78 weeks, study length 78 weeks) 8970 mg/kg/day; (mouse, strain Slc:ddY, females, in feed, site: liver, lesion: hepatocellular adenoma, dosed 78 weeks, study length 78 weeks) 23000 mg/kg/day; (mouse, strain Slc:ddY, males, in feed, site: any site (literature study), lesion: several types, types named in the paper, dosed 78 weeks, study length 78 weeks) 185 mg/kg/day; (mouse, strain Slc:ddY, males, in feed, site: kidney, lesion: renal-cell carcinoma, dosed 78 weeks, study length 78 weeks) 844 mg/kg/day. Also, the TD50 (mouse, strain Slc:ddY, males, in feed, site: kidney, lesion: several types, types named in the paper, dosed 78 weeks, study length 78 weeks) is 539 mg/kg/day; the TD50 (mouse, strain Slc:ddY, males, in feed, site: liver, lesion: hepatocellular carcinoma, dosed 78 weeks, study length 78 weeks) is 28800 mg/kg/day; the TD50 (mouse, strain Slc:ddY, males, in feed, site: liver, lesion: several types, types named in the paper, dosed 78 weeks, study length 78 weeks) is 1690 mg/kg/day; the TD50 (rat, strain Fischer 344, females, by gavage, site: any site (literature study), lesion: several types, types named in the paper, dosed 104 weeks, study length 104 weeks) amounted to 39.9 mg/kg/day; the TD50 (rat, strain Fischer 344, females, by gavage, site: kidney, lesion: tubule adenoma, dosed 104 weeks, study length 104 weeks) is 187 mg/kg/day; the TD50 (rat, strain Fischer 344, females, by gavage, site: multiple organs, lesion: mononuclear-cell leukemia, dosed 104 weeks, study length 104 weeks) is 90.2 mg/kg/day. Further, the TD50 runs as follows: (rat, strain Fischer 344, females, by gavage, site: thyroid gland, lesion: follicular-cell adenoma + follicular-cell carcinoma, dosed 104 weeks, study length 104 weeks) 203 mg/kg/day; (rat, strain Fischer 344, females, by gavage, site: thyroid gland, lesion: follicular-cell carcinoma, dosed 104 weeks, study length 104 weeks) 280 mg/kg/day; (rat, strain Fischer 344, females, by gavage, site: uterus, lesion: endometrial stromal sarcoma, dosed 104 weeks, study length 104 weeks) 589 mg/kg/day; (rat, strain Fischer 344, males, by gavage, site: adrenal medulla, lesion: pheochromocytoma benign, bilateral + pheochromocytoma, benign, dosed 104 weeks, study length 104 weeks) 49.5 mg/kg/day; (rat, strain Fischer 344, males, by gavage, site: any site (literature study), lesion: several types, types named in the paper, dosed 104 weeks, study length 104 weeks) 56.8 mg/kg/day; (rat, strain Fischer 344, males, by gavage, site: brain + cerebellum, meninges, lesion: granular-cell tumor, benign, dosed 104 weeks, study length 104 weeks) 705 mg/kg/day. For the same compound, the TD50 runs as follows: (rat, strain Fischer 344, males, by gavage, site: kidney, lesion: tubule adenoma + tubule carcinoma, dosed 104 weeks, study length 104 weeks) 56.4 mg/kg/day; (rat, strain Fischer 344, males, by gavage, site: kidney, lesion: tubule adenoma, dosed 104 weeks, study length 104 weeks) 56.9 mg/kg/day; (rat, strain Fischer 344, males, by gavage, site: kidney, lesion: tubule carcinoma, dosed 104 weeks, study length 104 weeks) 8400 mg/kg/day; (rat, strain Fischer 344, males, by gavage, site: liver, lesion: hepatocellular adenoma + hepatocellular carcinoma + neoplastic nodule, dosed 104 weeks, study length 104 weeks) 633 mg/kg/day; (rat, strain Fischer 344, males, by gavage, site: multiple organs, lesion: mononuclear-cell leukemia, dosed 104 weeks, study length 104 weeks) 107 mg/kg/day; (rat, strain Fischer 344, males, by gavage, site: subcutaneous tissue, lesion: fibroma, dosed 104 weeks, study length 104 weeks) 246 mg/kg/day. Further, the TD50 (rat, strain Fischer 344, males, by gavage, site: thyroid gland, lesion: follicular-cell adenoma + follicular-cell carcinoma, dosed 104 weeks, study length 104 weeks) turned out to be 338 mg/kg/day.

As for `Cc1c([N+](=O)[O-])c(C)c([N+](=O)[O-])c(C(C)(C)C)c1[N+](=O)[O-]`, the TD50 was 2250 mg/kg/day (mouse, strain B6C3F1, females, in feed, site: Harderian gland, lesion: several types, types named in the paper, dosed 80 weeks, study length 90 weeks); 1300 mg/kg/day (mouse, strain B6C3F1, females, in feed, site: all sites, lesion: lymphoma, dosed 80 weeks, study length 90 weeks); 418 mg/kg/day (mouse, strain B6C3F1, females, in feed, site: any site (literature study), lesion: malignant tumor, dosed 80 weeks, study length 90 weeks); 234 mg/kg/day (mouse, strain B6C3F1, females, in feed, site: liver, lesion: hepatocellular adenoma, dosed 80 weeks, study length 90 weeks); 2190 mg/kg/day (mouse, strain B6C3F1, females, in feed, site: liver, lesion: hepatocellular carcinoma, dosed 80 weeks, study length 90 weeks); 203 mg/kg/day (mouse, strain B6C3F1, females, in feed, site: liver, lesion: several types, types named in the paper, dosed 80 weeks, study length 90 weeks). Besides, the TD50 runs as follows: (mouse, strain B6C3F1, females, in feed, site: lung, lesion: adenoma, dosed 80 weeks, study length 90 weeks) 1630 mg/kg/day; (mouse, strain B6C3F1, females, in feed, site: lung, lesion: carcinoma, dosed 80 weeks, study length 90 weeks) 6650 mg/kg/day; (mouse, strain B6C3F1, females, in feed, site: lung, lesion: several types, types named in the paper, dosed 80 weeks, study length 90 weeks) 1300 mg/kg/day; (mouse, strain B6C3F1, females, in feed, site: uterus, lesion: endometrial stromal sarcoma, dosed 80 weeks, study length 90 weeks) 533 mg/kg/day; (mouse, strain B6C3F1, males, in feed, site: Harderian gland, lesion: adenoma, dosed 80 weeks, study length 90 weeks) 383 mg/kg/day; (mouse, strain B6C3F1, males, in feed, site: Harderian gland, lesion: several types, types named in the paper, dosed 80 weeks, study length 90 weeks) 425 mg/kg/day. Also, the TD50 was 334 mg/kg/day (mouse, strain B6C3F1, males, in feed, site: any site (literature study), lesion: malignant tumor, dosed 80 weeks, study length 90 weeks); 232 mg/kg/day (mouse, strain B6C3F1, males, in feed, site: liver, lesion: hepatocellular adenoma, dosed 80 weeks, study length 90 weeks); 313 mg/kg/day (mouse, strain B6C3F1, males, in feed, site: liver, lesion: hepatocellular carcinoma, dosed 80 weeks, study length 90 weeks); 92.1 mg/kg/day (mouse, strain B6C3F1, males, in feed, site: liver, lesion: several types, types named in the paper, dosed 80 weeks, study length 90 weeks); 1200 mg/kg/day (mouse, strain B6C3F1, males, in feed, site: lung, lesion: adenoma, dosed 80 weeks, study length 90 weeks).

For `O=S(=O)(O)c1c(N=Nc2c(O)ccc3ccccc23)ccc2ccccc12`, the carcinogen call reads like this: (rat, strain Osborne-Mendel, females, in feed, site: liver, lesion: adenoma, dosed 105 weeks, study length 105 weeks) “negative (inactive)”; (rat, strain Osborne-Mendel, males, in feed, site: liver, lesion: hepatocellular adenoma, dosed 105 weeks, study length 105 weeks) “negative (inactive)”. For the same compound, the TD50 (rat, strain Osborne-Mendel, females, in feed, site: pituitary gland, lesion: adenoma, dosed 105 weeks, study length 105 weeks) is 3560 mg/kg/day (inactive).

For `CC(O)CN(CC(O)CO)N=O` (stereo unspecified), the TD50 by setting is: (hamster, strain Syrian Golden, females, by gavage, site: forestomach, lesion: several types, types named in the paper, dosed 41 weeks, study length 75 weeks) 1.59 mg/kg/day; (hamster, strain Syrian Golden, females, by gavage, site: forestomach, lesion: squamous-cell papilloma, dosed 41 weeks, study length 75 weeks) 1.59 mg/kg/day; (hamster, strain Syrian Golden, females, by gavage, site: liver, lesion: cholangioadenoma, dosed 41 weeks, study length 75 weeks) 32.6 mg/kg/day; (rat, strain Fischer 344, females, in drinking water, site: esophagus, lesion: carcinoma, dosed 37 weeks, study length 85 weeks) 0.117 mg/kg/day; (rat, strain Fischer 344, females, in drinking water, site: esophagus, lesion: several types, types named in the paper, dosed 37 weeks, study length 85 weeks) 0.0535 mg/kg/day; (rat, strain Fischer 344, females, in drinking water, site: forestomach, lesion: several types, types named in the paper, dosed 37 weeks, study length 85 weeks) 0.178 mg/kg/day. Moreover, the TD50 by setting is: (rat, strain Fischer 344, females, in drinking water, site: liver, lesion: hepatocellular carcinoma, dosed 37 weeks, study length 85 weeks) 2.4 mg/kg/day; (rat, strain Fischer 344, females, in drinking water, site: tongue, lesion: several types, types named in the paper, dosed 37 weeks, study length 85 weeks) 0.0888 mg/kg/day; (rat, strain Fischer 344, females, in drinking water, site: tongue, lesion: squamous-cell carcinoma, dosed 37 weeks, study length 85 weeks) 0.241 mg/kg/day.

What is called TD50 is the 50% point of the dose-response relation for the toxic effect studied.
